Measurements reported in PubChem BioAssay (NCI).
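Tested at 5 concentrations; 48 h exposure; 96-well plates; endpoints linearly interpolated, else capped at highest concentration. TGI: concentration producing complete growth inhibition.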

Legend:
Test in all cases: NCI-60 cell line screen, 48 h
[1] = tested on: 786-0 renal
[2] = tested on: A549 NSCLC
[3] = tested on: COLO 205 colon
[4] = tested on: EKVX NSCLC
[5] = tested on: HOP-62 NSCLC
[6] = tested on: SF-268 CNS
[7] = tested on: SF-295 CNS
[8] = tested on: SK-OV-3 ovarian
[9] = tested on: SN12C renal
[10] = tested on: UACC-257 melanoma
[11] = tested on: UACC-62 melanoma

Compound	TGI [1]	TGI [2]	TGI [3]	TGI [4]	TGI [5]	TGI [6]	TGI [7]	TGI [8]	TGI [9]	TGI [10]	TGI [11]
CC(C)(C)OC(=O)N(O)CCCn1cnc2c(N)ncnc21	> 100 µM	> 100 µM	> 100 µM	> 100 µM	> 100 µM	> 100 µM	> 100 µM	> 100 µM	> 100 µM	> 100 µM	> 100 µM
CCN(CC)CCCC(C)Nc1ccnc2ccc3nn(C)nc3c12 (centres undefined)	> 100 µM	> 100 µM	> 100 µM	> 100 µM	> 100 µM	> 100 µM	> 100 µM	> 100 µM	> 100 µM	> 100 µM	> 100 µM
O=C(O)Cc1ccc(Oc2nc3ccccc3nc2C(=O)O)cc1	> 100 µM	> 100 µM	> 100 µM	> 100 µM	> 100 µM	> 100 µM	> 100 µM	> 100 µM	> 100 µM	> 100 µM	> 100 µM
CCOc1ccc(NC(=O)/C(=N\NC(C)(C)C)C2C(=O)Nc3ccccc3S2=O)cc1 (centres undefined)	> 100 µM	> 100 µM	> 100 µM	> 100 µM	> 100 µM	> 100 µM	> 100 µM	> 100 µM	> 100 µM	> 100 µM	> 100 µM
CCOC(=O)c1sc(N/N=C2\NC(=O)/C(=C/c3ccc([N+](=O)[O-])cc3)S2)nc1C	33.7 µM	> 100 µM	48.5 µM	43.4 µM	38 µM	> 100 µM	> 100 µM	> 100 µM	88.2 µM	42.1 µM	73.4 µM
c1ccc(C2=NOC3(c4ccccc4)SC4CCCCC4CN23)cc1 (centres undefined)	> 100 µM	58.5 µM	69.4 µM	> 100 µM	> 100 µM	95.5 µM	> 100 µM	> 100 µM	> 100 µM	> 100 µM	83.1 µM
CC=CCOc1cc(NC(=S)OC(C)C)ccc1Cl (mixture of isomers)	31.6 µM	33.1 µM	33.3 µM	36.6 µM	45.4 µM	37.9 µM	35.5 µM	45.8 µM	29 µM	46.5 µM	30.7 µM
Cc1ccc(S(=O)(=O)N2C[C@](O)(c3ccccc3)[C@H]2C)cc1	> 100 µM	> 100 µM	> 100 µM	> 100 µM	> 100 µM	> 100 µM	> 100 µM	> 100 µM	> 100 µM	> 100 µM	> 100 µM
Cn1c(-c2cccs2)cc(-c2cccs2)c1-c1ccco1	> 100 µM	> 100 µM	> 77.8 µM	> 100 µM	> 100 µM	> 100 µM	> 100 µM	> 100 µM	> 100 µM	> 100 µM	> 100 µM
OC[C@]1(n2nc3ccccc3n2)OC[C@@H]1c1ccccc1	> 100 µM	> 100 µM	> 100 µM	> 100 µM	> 100 µM	> 100 µM	> 100 µM	> 100 µM	> 100 µM	> 100 µM	> 100 µM
C=C(C)CC1(O)C(=O)C(OCC)=C1OCC (centres undefined)	> 100 µM	> 100 µM	> 100 µM	> 100 µM	> 100 µM	> 100 µM	> 100 µM	> 100 µM	> 100 µM	> 100 µM	> 100 µM
O=C1NC(N2CCCCC2)=N/C1=C\c1cccs1	> 100 µM	> 100 µM	> 100 µM	> 100 µM	> 100 µM	> 100 µM	> 100 µM	> 100 µM	> 100 µM	> 100 µM	> 100 µM
Cc1nc2c(nc1C)-c1c(c3c(n1C)C(=O)CCC3)C(=O)C2=O	3.23 µM	4.56 µM	3.46 µM	2.65 µM	2.37 µM	1.22 µM	3.71 µM	2.61 µM	0.52 µM	2.76 µM	1.5 µM
O=c1[nH]c2cc([N+](=O)[O-])ccc2nc1/C(=N/Nc1ccccc1)C(O)c1ccc(C(O)/C(=N\Nc2ccccc2)c2cnc3cc([N+](=O)[O-])ccc3n2)cc1 (centres undefined)	> 100 µM	> 100 µM	> 100 µM	> 100 µM	> 100 µM	> 100 µM	> 100 µM	> 100 µM	> 100 µM	> 100 µM	> 100 µM
